Measurements as given in patent publication US9833497B2, “Human originated EGF domain proteins and use of the same” (CHENGDU SOURCEBIO LIMITED-LIABILITY COMPANY, priority 2013, dated 2017).

Key:
Format in all cases: cell-based
[1] = tested on: E. coli DH5α; assay: Antibacterial activity: MIC and growth curve against E. coli DH5α in 96-well plate; settings: minimal inhibitory concentration against E. coli DH5α; 96-well plate, 5×10^5 CFU/mL, 37° C., judged after 8 h
Outline: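 MIC taken as lowest protein level with no bacterial growth, tracked by A600 every 30 min during 37 °C, 175 rpm culture. Two-fold protein series 50-12.5 μg/mL final, triplicate wells, against 5×10^5 CFU/mL of LB-washed mid-log cells.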

[2] = tested on: E. coli BL21; assay: MIC against Gram-negative bacteria: E. coli BL21; settings: 5×10^5 CFU/mL
Outline: (§1)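 The recombinant human-originated EGF domain proteins were serially diluted two-fold against bacteria at 5×10^5 CFU/mL in LB medium. After shaken incubation at 37° C, the lowest concentration with no bacterial growth was recorded as the MIC.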

[3] = tested on: Pseudomonas aeruginosa; assay: MIC against Gram-negative bacteria: Pseudomonas aeruginosa; settings: 5×10^5 CFU/mL
Outline: as §1

[4] = tested on: Klebsiella pneumonia; assay: MIC against Gram-negative bacteria: Klebsiella pneumonia; settings: 5×10^5 CFU/mL
Outline: as §1

[5] = tested on: Enterobacter cloacae; assay: MIC against Gram-negative bacteria: Enterobacter cloacae; settings: 5×10^5 CFU/mL
Outline: as §1

[6] = tested on: Aeromonas hydrophila; assay: MIC against Gram-negative bacteria: Aeromonas hydrophila; settings: 5×10^5 CFU/mL
Outline: as §1

[7] = tested on: Citrobacter diversus; assay: MIC against Gram-negative bacteria: Citrobacter diversus; settings: 5×10^5 CFU/mL
Outline: as §1

[8] = tested on: Moraxella catarrhalis; assay: MIC against Gram-negative bacteria: Moraxella catarrhalis; settings: 5×10^5 CFU/mL
Outline: as §1

[9] = tested on: Proteus mirabilis; assay: MIC against Gram-negative bacteria: Proteus mirabilis; settings: 5×10^5 CFU/mL
Outline: as §1

[10] = tested on: Proteus vulgaris; assay: MIC against Gram-negative bacteria: Proteus vulgaris; settings: 5×10^5 CFU/mL
Outline: as §1

[11] = tested on: Serratia marcescens; assay: MIC against Gram-negative bacteria: Serratia marcescens; settings: 5×10^5 CFU/mL
Outline: as §1

[12] = E. coli BL21, 10 h cultivation at 37° C.

With “PRT1233 (ISEPCPSYCSGHGDCISGVCFCDLGYTAAQGTCV; listed as Homo sapiens)” the MIC [1] was 25 µg/mL, the “MIC against E. coli BL21” value ([2]; E. coli BL21, 96-well plate, 37° C., 10 h) was 12.5 µg/mL and the “MIC against P. aeruginosa” value ([3]; Pseudomonas aeruginosa, 96-well plate, 37° C., 10 h) was 25 µg/mL. For the same substance, the “MIC against K. pneumonia” value ([4]; Klebsiella pneumonia, 96-well plate, 37° C., 10 h) was 50 µg/mL, the “MIC against E. cloacae” value ([5]; Enterobacter cloacae, 96-well plate, 37° C., 10 h) was 12.5 µg/mL and the “MIC against A. hydrophila” value ([6]; Aeromonas hydrophila, 96-well plate, 37° C., 10 h) was 50 µg/mL. For the same substance, the “MIC against C. diversus” value ([7]; Citrobacter diversus, 96-well plate, 37° C., 10 h) was 12.5 µg/mL, the “MIC against M. catarrhalis” value ([8]; Moraxella catarrhalis, 96-well plate, 37° C., 10 h) was 50 µg/mL and the “MIC against P. mirabilis” value ([9]; Proteus mirabilis, 96-well plate, 37° C., 10 h) was 25 µg/mL. For the same substance, the “MIC against P. vulgaris” value ([10]; Proteus vulgaris, 96-well plate, 37° C., 10 h) was 12.5 µg/mL and the “MIC against S. marcescens” value ([11]; Serratia marcescens, 96-well plate, 37° C., 10 h) was 25 µg/mL.
In the case of “PRT1344 (DIDECSPLPCLNNGVCKDLVGEFICECPSGYTGQRCE; listed as Homo sapiens)”, the MIC [1] is reported as 12.5 µg/mL, the “MIC against E. coli BL21” value [2, 12] is reported as 50 µg/mL and the “MIC against P. aeruginosa” value ([3]; Pseudomonas aeruginosa, 10 h cultivation at 37° C.) is reported as 25 µg/mL. For the same substance, the “MIC against K. pneumonia” value ([4]; Klebsiella pneumonia, 10 h cultivation at 37° C.) was 12.5 µg/mL, the “MIC against E. cloacae” value ([5]; Enterobacter cloacae, 10 h cultivation at 37° C.) was 25 µg/mL and the “MIC against A. hydrophila” value ([6]; Aeromonas hydrophila, 10 h cultivation at 37° C.) was 50 µg/mL. For the same substance, the “MIC against C. diversus” value ([7]; Citrobacter diversus, 10 h cultivation at 37° C.) was 12.5 µg/mL, the “MIC against M. catarrhalis” value ([8]; Moraxella catarrhalis, 10 h cultivation at 37° C.) was 50 µg/mL and the “MIC against P. mirabilis” value ([9]; Proteus mirabilis, 10 h cultivation at 37° C.) was 12.5 µg/mL. The “MIC against P. vulgaris” value ([10]; Proteus vulgaris, 10 h cultivation at 37° C.) was 50 µg/mL and the “MIC against S. marcescens” value ([11]; Serratia marcescens, 10 h cultivation at 37° C.) was 25 µg/mL.
In the case of “PRT420 (DIDECVTGIHNCSINETCFNIQGGFRCLAFECPENYRRSAATLQQEKTDTVRCI; listed as Homo sapiens)”, the MIC [1] is reported as 50 µg/mL, the MIC [2, 12] is reported as 25 µg/mL and the MIC ([3]; P. aeruginosa, 10 h cultivation at 37° C.) is reported as 12.5 µg/mL. It also gave an MIC ([4]; K. pneumonia, 10 h cultivation at 37° C.) of 25 µg/mL, an MIC ([5]; E. cloacae, 10 h cultivation at 37° C.) of 50 µg/mL and an MIC ([6]; A. hydrophila, 10 h cultivation at 37° C.) of 12.5 µg/mL. The MIC ([7]; C. diversus, 10 h cultivation at 37° C.) was 50 µg/mL, the MIC ([8]; M. catarrhalis, 10 h cultivation at 37° C.) was 12.5 µg/mL and the MIC ([9]; P. mirabilis, 10 h cultivation at 37° C.) was 50 µg/mL. The MIC ([10]; P. vulgaris, 10 h cultivation at 37° C.) was 100 µg/mL and the MIC ([11]; S. marcescens, 10 h cultivation at 37° C.) was 50 µg/mL.
“PRT456 (DIDECADSEACGEARCKNLPGSYSCLCDEGFAYSSQEKACR; listed as Homo sapiens)” was tested, and the MIC [1] was 25 µg/mL, the “MIC against E. coli BL21” value ([2]; 96-well plate, 37° C., 10 h) was 12.5 µg/mL and the “MIC against P. aeruginosa” value ([3]; 96-well plate, 37° C., 10 h) was 50 µg/mL. For the same substance, the “MIC against K. pneumonia” value ([4]; 96-well plate, 37° C., 10 h) was 12.5 µg/mL, the “MIC against E. cloacae” value ([5]; 96-well plate, 37° C., 10 h) was 12.5 µg/mL and the “MIC against A. hydrophila” value ([6]; 96-well plate, 37° C., 10 h) was 12.5 µg/mL. The “MIC against C. diversus” value ([7]; 96-well plate, 37° C., 10 h) was 50 µg/mL, the “MIC against M. catarrhalis” value ([8]; 96-well plate, 37° C., 10 h) was 12.5 µg/mL and the “MIC against P. mirabilis” value ([9]; 96-well plate, 37° C., 10 h) was 50 µg/mL. The “MIC against P. vulgaris” value ([10]; 96-well plate, 37° C., 10 h) was 12.5 µg/mL and the “MIC against S. marcescens” value ([11]; 96-well plate, 37° C., 10 h) was 25 µg/mL.
“PRT626 (CDCQSAGSLHLQCDDTGTCACKPTVTGWKCDRCLPGFHSLSEGGCRP; listed as Homo sapiens)” was tested, and the MIC [1] was 25 µg/mL, the “MIC E. coli BL21” value ([2]; 96-well plate, 37° C., 10 h) was 50 µg/mL and the “MIC P. aeruginosa” value ([3]; 96-well plate, 37° C., 10 h) was 25 µg/mL. For the same substance, the “MIC K. pneumonia” value ([4]; 96-well plate, 37° C., 10 h) was 12.5 µg/mL, the “MIC E. cloacae” value ([5]; 96-well plate, 37° C., 10 h) was 25 µg/mL and the “MIC A. hydrophila” value ([6]; 96-well plate, 37° C., 10 h) was 50 µg/mL. The “MIC C. diversus” value ([7]; 96-well plate, 37° C., 10 h) was 25 µg/mL, the “MIC M. catarrhalis” value ([8]; 96-well plate, 37° C., 10 h) was 12.5 µg/mL and the “MIC P. mirabilis” value ([9]; 96-well plate, 37° C., 10 h) was 25 µg/mL. The “MIC P. vulgaris” value ([10]; 96-well plate, 37° C., 10 h) was 50 µg/mL and the “MIC S. marcescens” value ([11]; 96-well plate, 37° C., 10 h) was 25 µg/mL.
In the case of “PRT538 (CPCPLPHLANFAESCYRKNGAVRCICNENYAGPNCERCAPGYYGNPLLIGSTCKK; listed as Homo sapiens)”, the MIC [1] is reported as 25 µg/mL, the “MIC against E. coli BL21” value ([2]; 96-well plate, 37° C., 10 h) is reported as 12.5 µg/mL and the “MIC against P. aeruginosa” value ([3]; 96-well plate, 37° C., 10 h) is reported as 25 µg/mL. The “MIC against K. pneumonia” value ([4]; 96-well plate, 37° C., 10 h) was 12.5 µg/mL, the “MIC against E. cloacae” value ([5]; 96-well plate, 37° C., 10 h) was 25 µg/mL and the “MIC against A. hydrophila” value ([6]; 96-well plate, 37° C., 10 h) was 12.5 µg/mL. For the same substance, the “MIC against C. diversus” value ([7]; 96-well plate, 37° C., 10 h) was 25 µg/mL, the “MIC against M. catarrhalis” value ([8]; 96-well plate, 37° C., 10 h) was 12.5 µg/mL and the “MIC against P. mirabilis” value ([9]; 96-well plate, 37° C., 10 h) was 12.5 µg/mL. For the same substance, the “MIC against P. vulgaris” value ([10]; 96-well plate, 37° C., 10 h) was 12.5 µg/mL and the “MIC against S. marcescens” value ([11]; 96-well plate, 37° C., 10 h) was 50 µg/mL.
